How the values were obtained:
[1] = target: T1, Nitric oxide synthase, inducible (Homo sapiens, UniProt P35228); assay: Inhibition of iNOS assessed as conversion of L-[3H]arginine to L-[3H]-citrulline at 50 uM after 30 mins by scintillation counting
[2] = target: Nitric oxide synthase 1 (Homo sapiens) (UniProt P29475); assay: Inhibition of nNOS assessed as conversion of L-[3H]arginine to L-[3H]-citrulline at 50 uM after 30 mins by scintillation counting
[3] = target: T1, Nitric oxide synthase, inducible; assay: Inhibition of iNOS assessed as conversion of L-[3H]arginine to L-[3H]-citrulline after 30 mins by scintillation counting

T1 sequence (P35228 whole entry): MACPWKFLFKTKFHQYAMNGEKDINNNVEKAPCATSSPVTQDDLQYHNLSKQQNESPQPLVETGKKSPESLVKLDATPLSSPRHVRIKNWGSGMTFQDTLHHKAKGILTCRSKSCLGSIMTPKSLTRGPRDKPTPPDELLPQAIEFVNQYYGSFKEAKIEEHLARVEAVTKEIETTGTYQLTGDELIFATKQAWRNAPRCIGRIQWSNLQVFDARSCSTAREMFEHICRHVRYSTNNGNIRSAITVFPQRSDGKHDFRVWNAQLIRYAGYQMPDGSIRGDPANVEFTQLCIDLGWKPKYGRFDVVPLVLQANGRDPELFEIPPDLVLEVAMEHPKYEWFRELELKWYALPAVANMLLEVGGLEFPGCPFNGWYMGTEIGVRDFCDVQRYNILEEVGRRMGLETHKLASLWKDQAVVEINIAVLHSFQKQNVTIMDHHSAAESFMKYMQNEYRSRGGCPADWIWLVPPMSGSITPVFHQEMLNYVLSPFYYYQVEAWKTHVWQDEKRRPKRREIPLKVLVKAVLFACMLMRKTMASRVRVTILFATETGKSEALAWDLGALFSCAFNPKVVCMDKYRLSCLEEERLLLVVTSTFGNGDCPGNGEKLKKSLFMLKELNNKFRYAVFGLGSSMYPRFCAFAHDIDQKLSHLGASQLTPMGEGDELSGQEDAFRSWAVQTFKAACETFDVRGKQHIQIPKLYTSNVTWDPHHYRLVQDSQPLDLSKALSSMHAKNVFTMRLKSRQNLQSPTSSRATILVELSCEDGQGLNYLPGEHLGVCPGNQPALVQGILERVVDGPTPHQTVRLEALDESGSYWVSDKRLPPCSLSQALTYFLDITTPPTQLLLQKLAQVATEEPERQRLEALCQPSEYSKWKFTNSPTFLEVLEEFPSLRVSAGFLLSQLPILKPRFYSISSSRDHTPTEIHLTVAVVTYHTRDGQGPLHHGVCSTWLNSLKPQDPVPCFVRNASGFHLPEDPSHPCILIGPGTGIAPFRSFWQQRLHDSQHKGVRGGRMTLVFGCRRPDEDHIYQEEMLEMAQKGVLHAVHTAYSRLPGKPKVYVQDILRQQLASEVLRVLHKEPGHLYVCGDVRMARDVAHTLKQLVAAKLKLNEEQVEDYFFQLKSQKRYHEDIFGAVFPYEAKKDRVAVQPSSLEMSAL
Sequence of Nitric oxide synthase 1 (Homo sapiens) (P29475 whole entry): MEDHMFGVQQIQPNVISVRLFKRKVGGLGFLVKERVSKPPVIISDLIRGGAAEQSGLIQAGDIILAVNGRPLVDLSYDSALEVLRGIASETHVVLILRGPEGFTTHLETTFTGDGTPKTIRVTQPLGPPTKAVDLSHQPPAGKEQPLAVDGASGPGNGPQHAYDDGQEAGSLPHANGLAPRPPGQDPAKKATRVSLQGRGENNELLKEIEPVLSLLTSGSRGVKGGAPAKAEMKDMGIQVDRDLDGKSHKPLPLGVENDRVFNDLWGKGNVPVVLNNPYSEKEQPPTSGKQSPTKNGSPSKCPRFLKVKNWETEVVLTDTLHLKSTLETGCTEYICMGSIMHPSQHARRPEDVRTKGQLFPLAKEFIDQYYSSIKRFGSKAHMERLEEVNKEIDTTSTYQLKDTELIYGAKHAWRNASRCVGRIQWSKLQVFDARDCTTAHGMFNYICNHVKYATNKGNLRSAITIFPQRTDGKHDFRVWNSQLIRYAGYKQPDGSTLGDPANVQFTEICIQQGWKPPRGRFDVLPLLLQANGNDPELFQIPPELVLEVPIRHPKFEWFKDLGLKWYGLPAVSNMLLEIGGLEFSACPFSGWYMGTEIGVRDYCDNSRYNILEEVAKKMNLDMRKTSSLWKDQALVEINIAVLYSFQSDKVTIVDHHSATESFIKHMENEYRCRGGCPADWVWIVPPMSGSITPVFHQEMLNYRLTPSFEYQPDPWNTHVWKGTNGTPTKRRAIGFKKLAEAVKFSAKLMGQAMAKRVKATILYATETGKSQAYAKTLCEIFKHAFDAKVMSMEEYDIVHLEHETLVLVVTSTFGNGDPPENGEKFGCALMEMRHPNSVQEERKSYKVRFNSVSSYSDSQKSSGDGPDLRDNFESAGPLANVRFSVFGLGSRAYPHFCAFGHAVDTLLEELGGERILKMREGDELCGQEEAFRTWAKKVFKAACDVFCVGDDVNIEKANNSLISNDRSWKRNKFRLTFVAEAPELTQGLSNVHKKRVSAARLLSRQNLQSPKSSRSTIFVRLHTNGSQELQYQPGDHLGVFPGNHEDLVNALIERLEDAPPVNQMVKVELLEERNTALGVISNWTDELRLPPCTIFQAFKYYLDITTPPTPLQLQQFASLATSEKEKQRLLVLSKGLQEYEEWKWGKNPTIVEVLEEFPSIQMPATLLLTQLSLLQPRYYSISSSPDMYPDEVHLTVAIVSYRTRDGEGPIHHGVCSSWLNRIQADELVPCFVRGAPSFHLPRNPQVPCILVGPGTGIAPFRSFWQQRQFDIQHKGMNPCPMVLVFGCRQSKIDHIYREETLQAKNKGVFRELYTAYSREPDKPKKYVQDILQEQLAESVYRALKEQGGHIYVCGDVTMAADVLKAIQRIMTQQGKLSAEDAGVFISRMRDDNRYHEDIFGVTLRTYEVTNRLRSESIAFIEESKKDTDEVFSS

CC1(C)SC(c2cc(Cl)ccc2N)=NN1C(=O)C1CCCCC1
inhibition [1]: 7.61%
inhibition [2]: 23.1%

COc1ccc(N)c(C2=NN(C(C)=O)C(C)(C)S2)c1
inhibition [1]: 77.1%
inhibition [2]: 43.3%

CCCC(=O)N1N=C(c2cc(OC)ccc2N)SC1(C)C
IC50 [3]: 29.6 µM
inhibition [1]: 91.1%
inhibition [2]: 9.58%

COc1ccc(N)c(C2=NN(C(=O)c3ccccc3)C(C)(C)S2)c1
inhibition [1]: 0%
inhibition [2]: 17.2%

CC1(C)SC(c2cc(Cl)ccc2N)=NN1C(=O)C1CCC1
inhibition [1]: -4.65%
inhibition [2]: 4.56%

CCCCC(=O)N1N=C(c2ccccc2N)SC1(C)C
inhibition [1]: 39%
inhibition [2]: 38%

CCCCC(=O)N1N=C(c2cc(Cl)ccc2N)SC1(C)C
inhibition [1]: 12.6%
inhibition [2]: 38%

COc1ccc(N)c(C2=NN(C(=O)C3CCC3)C(C)(C)S2)c1
inhibition [1]: 57.8%
inhibition [2]: 13.7%

CC1(C)SC(c2cc(Cl)ccc2N)=NN1C(=O)C1CCCC1
inhibition [1]: 21.3%
inhibition [2]: 8.37%

CCC(=O)N1N=C(c2cc(Cl)ccc2N)SC1(C)C
inhibition [1]: 1.07%
inhibition [2]: 18.3%

COc1ccc(N)c(C2=NN(C(=O)C3CC3)C(C)(C)S2)c1
IC50 [3]: 41 µM
inhibition [1]: 90%
inhibition [2]: 9.95%

COc1ccc(N)c(C2=NN(C(=O)C3CCCC3)C(C)(C)S2)c1
inhibition [1]: 65%
inhibition [2]: 17.4%

CC1(C)SC(c2cc(Cl)ccc2N)=NN1C(=O)C1CC1
inhibition [1]: 23.2%
inhibition [2]: 21.9%

CC1(C)SC(c2ccccc2N)=NN1C(=O)C1CC1
IC50 [3]: 34 µM
inhibition [1]: 93%
inhibition [2]: 7.32%

CC1(C)SC(c2cc(Cl)ccc2N)=NN1C(=O)c1ccccc1
inhibition [1]: 20.8%
inhibition [2]: 23.6%

CCC(=O)N1N=C(c2ccccc2N)SC1(C)C
inhibition [1]: 19.2%
inhibition [2]: 24.2%

COc1ccc(N)c(C2=NN(C(=O)C3CCCCC3)C(C)(C)S2)c1
IC50 [3]: 21.9 µM
inhibition [1]: 100%
inhibition [2]: 11.3%

CC(=O)N1N=C(c2cc(Cl)ccc2N)SC1(C)C
inhibition [1]: 72.8%
inhibition [2]: 22.5%

CCCCC(=O)N1N=C(c2cc(OC)ccc2N)SC1(C)C
inhibition [1]: 101%
inhibition [2]: 14.6%

CCCC(=O)N1N=C(c2cc(Cl)ccc2N)SC1(C)C
inhibition [1]: 66.2%
inhibition [2]: 27.7%

CC(=O)N1N=C(c2ccccc2N)SC1(C)C
inhibition [1]: 22.9%
inhibition [2]: 13.3%

CC1(C)SC(c2ccccc2N)=NN1C(=O)C1CCCCC1
inhibition [1]: 28%
inhibition [2]: 6.8%

CCC(=O)N1N=C(c2cc(OC)ccc2N)SC1(C)C
inhibition [1]: 73%
inhibition [2]: 8.85%

CC1(C)SC(c2ccccc2N)=NN1C(=O)C1CCC1
inhibition [1]: 46.9%
inhibition [2]: 2.98%

CC1(C)SC(c2ccccc2N)=NN1C(=O)C1CCCC1
inhibition [1]: 42.1%
inhibition [2]: 9.34%

CC1(C)SC(c2ccccc2N)=NN1C(=O)c1ccccc1
inhibition [1]: 39.8%
inhibition [2]: 42.4%

CCCC(=O)N1N=C(c2ccccc2N)SC1(C)C
inhibition [1]: 35.2%
inhibition [2]: 17.5%
